Experimental data published in PubChem BioAssay AID192 (DTP/NCI, 2004).
Several values for one entry are separate records, joined by “and”; a condition that tells them apart may be missing. Equal values may be shown once. Toxic doses and inconclusive results are not listed.

System: BDF1 mice, B16 melanoma ip, median survival T/C
Assay: NCI In Vivo Anticancer Drug Screen. Data for tumor model B16 Melanoma (intraperitoneal) in B6D2F1 (BDF1) mice
Settings: endpoint: median survival time, higher = longer survival
Procedure, shortened: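 Read-out: survival or tumor size, given as treated/control ratio. Controls received vehicle only; animals bore transplantable tumors.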

CC1CCC(NC(=O)N(CCCl)N=O)CC1 (stereo not drawn) was tested, and the T/C (dose: 0.5 mg/kg/injection, schedule: Q01DX009 (ip), vehicle: other) was 104 % of control, the T/C (dose: 0.5 mg/kg/injection, schedule: Q01DX009 (ip), vehicle: saline + alcohol) was 95 % of control and the T/C (dose: 1.0 mg/kg/injection, schedule: Q01DX009 (ip), vehicle: other) was 112 % of control. For the same molecule, the T/C (dose: 1.0 mg/kg/injection, schedule: Q01DX009 (ip), vehicle: saline + alcohol) was 113 % of control, the T/C (dose: 1.9 mg/kg/injection, schedule: Q01DX001 (ip), vehicle: saline) was 106 % of control and the T/C (dose: 2.0 mg/kg/injection, schedule: Q01DX009 (ip), vehicle: distilled water + Tween-80 + alcohol) was 103 % of control. The T/C (dose: 2.0 mg/kg/injection, schedule: Q01DX009 (ip), vehicle: other) was 111 % of control, the T/C (dose: 2.0 mg/kg/injection, schedule: Q01DX009 (ip), vehicle: saline + alcohol) was 118 % of control and the T/C (dose: 2.5 mg/kg/injection, schedule: Q04DX003 (ip), vehicle: other) was 109 % of control. The T/C (dose: 3.75 mg/kg/injection, schedule: Q01DX001 (ip), vehicle: saline) was 117 % of control, the T/C (dose: 3.75 mg/kg/injection, schedule: Q04DX003 (ip), vehicle: other) was 112 % of control and 123 % of control and the T/C (dose: 4.0 mg/kg/injection, schedule: Q01DX009 (ip), vehicle: distilled water + Tween-80 + alcohol) was 108 % of control. For the same molecule, the T/C (dose: 4.0 mg/kg/injection, schedule: Q01DX009 (ip), vehicle: saline + alcohol) was 150 % of control, the T/C (dose: 5.0 mg/kg/injection, schedule: Q04DX003 (ip), vehicle: other) was 124 % of control and the T/C (dose: 7.5 mg/kg/injection, schedule: Q04DX003 (ip), vehicle: other) was 212 % of control. The T/C (dose: 8.0 mg/kg/injection, schedule: Q01DX009 (ip), vehicle: distilled water + Tween-80 + alcohol) was 184 % of control, the T/C (dose: 8.0 mg/kg/injection, schedule: Q01DX009 (ip), vehicle: other) was 200 % of control and the T/C (dose: 8.0 mg/kg/injection, schedule: Q01DX009 (ip), vehicle: saline + alcohol) was 72 % of control. For the same molecule, the T/C (dose: 9.0 mg/kg/injection, schedule: Q04DX002 (ip), vehicle: Klucel (hydroxypropylcellulose) (HPC)) was 121 % of control, the T/C (dose: 10.0 mg/kg/injection, schedule: Q04DX003 (ip), vehicle: other) was 189 % of control and the T/C (dose: 15.0 mg/kg/injection, schedule: Q04DX002 (ip), vehicle: Klucel (hydroxypropylcellulose) (HPC)) was 150 % of control. The T/C (dose: 15.0 mg/kg/injection, schedule: Q04DX003 (ip), vehicle: other) was 94 % of control and 272 % of control, the T/C (dose: 16.0 mg/kg/injection, schedule: Q01DX009 (ip), vehicle: distilled water + Tween-80 + alcohol) was 51 % of control and the T/C (dose: 16.0 mg/kg/injection, schedule: Q01DX009 (ip), vehicle: other) was 50 % of control. The T/C (dose: 16.0 mg/kg/injection, schedule: Q01DX009 (ip), vehicle: saline + alcohol) was 45 % of control, the T/C (dose: 20.0 mg/kg/injection, schedule: Q04DX003 (ip), vehicle: other) was 263 % of control and the T/C (dose: 24.0 mg/kg/injection, schedule: Q01DX001 (ip), vehicle: distilled water + Tween-80 + alcohol) was 161 % of control. For the same molecule, the T/C (dose: 25.0 mg/kg/injection, schedule: Q04DX002 (ip), vehicle: Klucel (hydroxypropylcellulose) (HPC)) was 196 % of control, the T/C (dose: 30.0 mg/kg/injection, schedule: Q04DX003 (ip), vehicle: other) was 50 % of control and 55 % of control and the T/C (dose: 32.0 mg/kg/injection, schedule: Q01DX009 (ip), vehicle: other) was 37 % of control. The T/C (dose: 32.0 mg/kg/injection, schedule: Q01DX009 (ip), vehicle: saline + alcohol) was 31 % of control, the T/C (dose: 40.0 mg/kg/injection, schedule: Q01DX001 (ip), vehicle: distilled water + Tween-80 + alcohol) was 182 % of control and the T/C (dose: 42.0 mg/kg/injection, schedule: Q04DX002 (ip), vehicle: Klucel (hydroxypropylcellulose) (HPC)) was 213 % of control. The T/C (dose: 64.0 mg/kg/injection, schedule: Q01DX009 (ip), vehicle: other) was 27 % of control, the T/C (dose: 64.0 mg/kg/injection, schedule: Q01DX009 (ip), vehicle: saline + alcohol) was 26 % of control and the T/C (dose: 66.7 mg/kg/injection, schedule: Q01DX001 (ip), vehicle: distilled water + Tween-80 + alcohol) was 63 % of control.
For CN1C(=O)CN=C(c2ccccc2)c2cc(Cl)ccc21, the T/C (dose: 0.02 mg/kg/injection, schedule: Q01DX009 (ip), vehicle: Klucel (hydroxypropylcellulose) (HPC)) was 95 % of control, the T/C (dose: 0.03 mg/kg/injection, schedule: Q01DX009 (ip), vehicle: saline) was 100 % of control and the T/C (dose: 0.04 mg/kg/injection, schedule: Q01DX009 (ip), vehicle: Klucel (hydroxypropylcellulose) (HPC)) was 233 % of control. The T/C (dose: 0.05 mg/kg/injection, schedule: Q01DX009 (ip), vehicle: saline) was 97 % of control, the T/C (dose: 0.09 mg/kg/injection, schedule: Q01DX009 (ip), vehicle: Klucel (hydroxypropylcellulose) (HPC)) was 104 % of control and the T/C (dose: 0.1 mg/kg/injection, schedule: Q01DX009 (ip), vehicle: saline) was 91 % of control. The T/C (dose: 0.19 mg/kg/injection, schedule: Q01DX009 (ip), vehicle: Klucel (hydroxypropylcellulose) (HPC)) was 109 % of control, the T/C (dose: 0.39 mg/kg/injection, schedule: Q01DX009 (ip), vehicle: Klucel (hydroxypropylcellulose) (HPC)) was 91 % of control and 105 % of control and the T/C (dose: 5.0 micrograms/kg/injection, schedule: Q01DX009 (ip), vehicle: Klucel (hydroxypropylcellulose) (HPC)) was 94 % of control. The T/C (dose: 10.0 micrograms/kg/injection, schedule: Q01DX009 (ip), vehicle: Klucel (hydroxypropylcellulose) (HPC)) was 93 % of control, the T/C (dose: 20.0 micrograms/kg/injection, schedule: Q01DX009 (ip), vehicle: Klucel (hydroxypropylcellulose) (HPC)) was 86 % of control and the T/C (dose: 40.0 micrograms/kg/injection, schedule: Q01DX009 (ip), vehicle: Klucel (hydroxypropylcellulose) (HPC)) was 94 % of control. For the same molecule, the T/C (dose: 90.0 micrograms/kg/injection, schedule: Q01DX009 (ip), vehicle: Klucel (hydroxypropylcellulose) (HPC)) was 92 % of control.
In the case of CC1=C2CC(C)(C)/C=C\C(=O)/C(C)=C\C3=C[C@H](C)C[C@]3(O2)C1=O, the T/C (dose: 1.5 mg/kg/injection, schedule: Q01DX009 (ip), vehicle: saline) is reported as 93 % of control, the T/C (dose: 3.0 mg/kg/injection, schedule: Q01DX009 (ip), vehicle: saline) is reported as 100 % of control and the T/C (dose: 6.0 mg/kg/injection, schedule: Q01DX009 (ip), vehicle: saline) is reported as 100 % of control. For the same molecule, the T/C (dose: 12.0 mg/kg/injection, schedule: Q01DX009 (ip), vehicle: saline) was 106 % of control, the T/C (dose: 16.0 mg/kg/injection, schedule: Q01DX009 (ip), vehicle: saline with Tween-80) was 97 % of control and the T/C (dose: 32.0 mg/kg/injection, schedule: Q01DX009 (ip), vehicle: saline with Tween-80) was 92 % of control.
With CC(C)(O)C1OCC(C2CCC3(C)C4=CCC5C(C)(C)C(O)CCC5(C)C4CCC23C)CC1O (stereo not drawn) the T/C (dose: 2.5 mg/kg/injection, schedule: Q01DX009 (ip), vehicle: Klucel (hydroxypropylcellulose) (HPC)) was 102 % of control, the T/C (dose: 5.0 mg/kg/injection, schedule: Q01DX009 (ip), vehicle: Klucel (hydroxypropylcellulose) (HPC)) was 98 % of control and the T/C (dose: 10.0 mg/kg/injection, schedule: Q01DX009 (ip), vehicle: Klucel (hydroxypropylcellulose) (HPC)) was 89 % of control.
With CC[C@@]1(O)C[C@H](OC2CC(N(C)C)C(O)C(C)O2)c2c(O)c3c(c(O)c2[C@H]1OC1CC(N(C)C)C(O)C(C)O1)C(=O)c1cccc(O)c1C3=O (stereo partly drawn) the T/C (dose: 31.2 micrograms/kg/injection, schedule: Q01DX009 (ip), vehicle: Klucel (hydroxypropylcellulose) (HPC)) was 100 % of control and the T/C (dose: 62.5 micrograms/kg/injection, schedule: Q01DX009 (ip), vehicle: Klucel (hydroxypropylcellulose) (HPC)) was 89 % of control.
For Clc1ccc(/C=N\N=C\c2ccc(Cl)c(Cl)c2)cc1Cl, the T/C (dose: 100.0 mg/kg/injection, schedule: Q01DX009 (ip), vehicle: Klucel (hydroxypropylcellulose) (HPC)) was 90 % of control and the T/C (dose: 200.0 mg/kg/injection, schedule: Q01DX009 (ip), vehicle: Klucel (hydroxypropylcellulose) (HPC)) was 90 % of control.
In the case of CC(O)C(=O)[O][Hg][c]1ccccc1 (stereo not drawn), the T/C (dose: 2.5 mg/kg/injection, schedule: Q01DX009 (ip), vehicle: saline with Tween-80) is reported as 102 % of control and the T/C (dose: 5.0 mg/kg/injection, schedule: Q01DX009 (ip), vehicle: saline with Tween-80) is reported as 102 % of control.
CCCCCc1ccc(C(=O)O)cc1 was tested, and the T/C (dose: 25.0 mg/kg/injection, schedule: Q01DX009 (ip), vehicle: saline with Tween-80) was 105 % of control, the T/C (dose: 50.0 mg/kg/injection, schedule: Q01DX009 (ip), vehicle: saline with Tween-80) was 102 % of control and the T/C (dose: 100.0 mg/kg/injection, schedule: Q01DX009 (ip), vehicle: saline with Tween-80) was 111 % of control.
In the case of COc1ccc(OC)c(/C=C/c2ccnc3ccccc23)c1, the T/C (dose: 50.0 mg/kg/injection, schedule: Q01DX009 (ip), vehicle: saline sonified) is reported as 113 % of control, the T/C (dose: 100.0 mg/kg/injection, schedule: Q01DX009 (ip), vehicle: saline sonified) is reported as 107 % of control and the T/C (dose: 200.0 mg/kg/injection, schedule: Q01DX009 (ip), vehicle: saline sonified) is reported as 113 % of control.
Cc1cc(C)c(C(=O)O)c(C)c1Br was tested, and the T/C (dose: 100.0 mg/kg/injection, schedule: Q04DX003 (ip), vehicle: saline with Tween-80) was 102 % of control, the T/C (dose: 200.0 mg/kg/injection, schedule: Q04DX003 (ip), vehicle: saline with Tween-80) was 97 % of control and the T/C (dose: 400.0 mg/kg/injection, schedule: Q04DX003 (ip), vehicle: saline with Tween-80) was 100 % of control.
